Measurements as given in the supplement of paper PMC6045584.
± gives the standard deviation of the averaged measurements.

Key:
ERLOTINIB = compound: C#Cc1cccc(Nc2ncnc3cc(OCCOC)c(OCCOC)cc23)c1 [ERLOTINIB]; experiment: surviving fraction relative to DMSO-only wells; higher = less growth inhibition; details: exposure time: 5 days
Summary of the method: (§1)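 In 384-well plates, 250–500 log-phase tumour cells per well were given 24 hours before five days of continuous exposure to inhibitors at 0.5, 1, 5, 10, 50, 100, 500 and 1000 nM. Surviving fraction is luminescence from CellTiter-Glo, normalised to the median of wells containing DMSO alone. Reading took place after 10 minutes at room temperature.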

VINORELBINE = compound: CCC1=C[C@@H]2CN(C1)Cc1c([nH]c3ccccc13)[C@@](C(=O)OC)(c1cc3c(cc1OC)N(C)[C@H]1[C@@](O)(C(=O)OC)[C@H](OC(C)=O)[C@]4(CC)C=CCN5CC[C@]31[C@@H]54)C2 [VINORELBINE]; experiment: as above; details: exposure time: 5 days
Summary of the method: as §1

Test System | surviving fraction (ERLOTINIB; 0.5 nM) | surviving fraction (ERLOTINIB; 5 nM) | surviving fraction (ERLOTINIB; 10 nM) | surviving fraction (ERLOTINIB; 50 nM) | surviving fraction (ERLOTINIB; 500 nM) | surviving fraction (ERLOTINIB; 1000 nM) | surviving fraction (VINORELBINE; 0.5 nM) | surviving fraction (VINORELBINE; 1 nM) | surviving fraction (VINORELBINE; 5 nM) | surviving fraction (VINORELBINE; 10 nM) | surviving fraction (VINORELBINE; 50 nM) | surviving fraction (VINORELBINE; 100 nM) | surviving fraction (VINORELBINE; 500 nM) | surviving fraction (VINORELBINE; 1000 nM) | surviving fraction (ERLOTINIB; 100 nM) | surviving fraction (ERLOTINIB; 1 nM)
HCC78 LUNG | 0.768 ± 0.087 | 0.918 ± 0.11 | 1.02 ± 0.033 | 0.962 ± 0.18 | 0.767 ± 0.15 | 0.847 ± 0.1 | 0.958 ± 0.18 | 0.806 ± 0.26 | 0.877 ± 0.25 | 0.575 ± 0.15 | 0.0987 ± 0.045 | 0.094 ± 0.016 | 0.0637 ± 0.012 | 0.042 ± 0.011 | – | –
HCC202 BREAST | 1.37 ± 0.29 | 1.2 ± 0.2 | 1.2 ± 0.12 | 1.64 ± 0.29 | – | 0.762 ± 0.15 | 1.25 ± 0.24 | 1.21 ± 0.12 | 0.946 ± 0.088 | 0.603 ± 0.14 | 0.383 ± 0.12 | 0.313 ± 0.06 | 0.234 ± 0.056 | 0.205 ± 0.033 | 1.32 ± 0.28 | –
HCC1395 BREAST | – | 1.33 ± 0.036 | 1.18 ± 0.14 | – | 1.14 ± 0.042 | 1.19 ± 0.051 | 1.04 ± 0.21 | 1.09 ± 0.16 | 1.13 ± 0.077 | 1.11 ± 0.031 | 0.952 ± 0.083 | 0.727 ± 0.12 | 0.575 ± 0.16 | 0.467 ± 0.057 | 1.28 ± 0.027 | 0.992 ± 0.02
HCC1806 BREAST | 1.04 ± 0.062 | 1.13 ± 0.056 | 1.15 ± 0.061 | 1.2 ± 0.042 | 0.656 ± 0.069 | 0.623 ± 0.025 | 0.976 ± 0.16 | 1.02 ± 0.075 | 1.01 ± 0.077 | 0.173 ± 0.14 | 0.0363 ± 0.0095 | 0.0347 ± 0.0038 | 0.042 ± 0.001 | 0.041 ± 0.0053 | 1.12 ± 0.037 | 1.1 ± 0.067
HCC1954 BREAST | 1.05 ± 0.059 | 1.35 ± 0.075 | 1.35 ± 0.23 | 0.782 ± 0.23 | 0.527 ± 0.066 | 0.493 ± 0.092 | 1.08 ± 0.15 | 0.9287 ± 0.0046 | 0.576 ± 0.01 | 0.311 ± 0.011 | 0.1412 ± 0.0011 | 0.13 ± 0.00071 | 0.091 ± 0.0021 | 0.144 ± 0.025 | 0.708 ± 0.23 | 1.14 ± 0.082
HCT15 LARGE INTESTINE | 1.06 ± 0.12 | 0.979 ± 0.17 | 0.977 ± 0.078 | 1.1 ± 0.038 | 1.1 ± 0.044 | – | 1.1 ± 0.066 | 1.06 ± 0.043 | 1.04 ± 0.085 | 0.957 ± 0.058 | 0.99 ± 0.064 | 0.819 ± 0.093 | 0.183 ± 0.026 | 0.106 ± 0.0059 | 1.11 ± 0.039 | 1 ± 0.15
HELA CERVIX | 1.06 ± 0.057 | 1.04 ± 0.089 | 1.05 ± 0.04 | 1.17 ± 0.054 | 1.25 ± 0.035 | 1.15 ± 0.021 | 1.05 ± 0.054 | 1.02 ± 0.044 | 1.04 ± 0.015 | 0.778 ± 0.043 | 0.145 ± 0.0031 | 0.0838 ± 0.0042 | 0.0347 ± 0.0015 | 0.0298 ± 0.0028 | 1.18 ± 0.028 | 1.08 ± 0.045
HMLE3 BREAST | 1.07 ± 0.021 | 1.1 ± 0.038 | 1.07 ± 0.026 | – | 0.976 ± 0.15 | 0.916 ± 0.013 | 0.993 ± 0.017 | 0.965 ± 0.053 | 1.07 ± 0.044 | 0.987 ± 0.013 | 0.125 ± 0.029 | 0.053 ± 0.012 | 0.0317 ± 0.0067 | 0.0373 ± 0.005 | 1.17 ± 0.077 | –
HMT3552 BREAST | 1.03 ± 0.024 | 0.994 ± 0.029 | 1.03 ± 0.02 | 1.02 ± 0.064 | 0.85 ± 0.08 | 0.808 ± 0.053 | 1.05 | 1.05 | 0.59 | 0.209 | 0.104 | 0.117 | 0.253 | 0.221 | 0.957 ± 0.034 | 1.04 ± 0.036
HOS BONE | 1.038 ± 0.0011 | 1.03 ± 0.028 | 1.03 ± 0.022 | – | 1.03 ± 0.038 | 0.98 ± 0.046 | 1.05 ± 0.05 | 1.01 ± 0.011 | 1.05 ± 0.034 | 0.967 ± 0.031 | 0.13 ± 0.012 | 0.0783 ± 0.0015 | 0.03 ± 0.0035 | 0.033 ± 0.0027 | 1.05 ± 0.0058 | –
HOSMNG BONE | – | 0.915 ± 0.044 | 0.947 ± 0.078 | 0.963 ± 0.1 | 1.1 ± 0.064 | 0.957 ± 0.044 | 0.938 ± 0.14 | 0.956 ± 0.1 | 0.963 ± 0.11 | 0.955 ± 0.15 | 0.694 ± 0.1 | 0.415 ± 0.028 | 0.112 ± 0.018 | 0.0593 ± 0.01 | – | 1 ± 0.041
HS578T BREAST | 1.18 ± 0.052 | 1.21 ± 0.22 | 1.23 ± 0.063 | 1.33 ± 0.21 | 1.28 ± 0.23 | 1.18 ± 0.12 | 1.13 ± 0.09 | 0.976 ± 0.17 | 0.423 ± 0.021 | 0.276 ± 0.027 | 0.153 ± 0.019 | 0.138 ± 0.004 | 0.173 ± 0.011 | 0.185 ± 0.014 | 1.32 ± 0.16 | 1.4 ± 0.32
HSSYII SYNOVIAL | 0.966 ± 0.066 | 1.02 ± 0.058 | 1.06 ± 0.031 | 1.03 ± 0.062 | 1.02 ± 0.063 | 1 ± 0.076 | 0.891 ± 0.082 | 0.836 ± 0.032 | 0.308 ± 0.033 | 0.0998 ± 0.006 | 0.0498 ± 0.003 | 0.0455 ± 0.0052 | 0.0458 ± 0.002 | 0.0588 ± 0.0063 | 1.01 ± 0.049 | 1.03 ± 0.036
HT1080 SOFT TISSUE | – | 1.06 ± 0.027 | 1.05 ± 0.026 | 1.024 ± 0.004 | 1.07 ± 0.066 | 1.03 ± 0.077 | 1.02 ± 0.02 | 1.02 ± 0.016 | 0.903 ± 0.018 | 0.503 ± 0.01 | 0.0517 ± 0.0055 | 0.0363 ± 0.00058 | 0.038 ± 0.002 | 0.0363 ± 0.0015 | 1.02 ± 0.022 | 1.05 ± 0.032
HU09 BONE | 1.08 ± 0.11 | 1.12 ± 0.073 | 1.04 ± 0.1 | 1.11 ± 0.029 | 1.04 ± 0.061 | 0.965 ± 0.062 | 1.09 ± 0.035 | 1.02 ± 0.11 | 0.981 ± 0.1 | 0.558 ± 0.071 | 0.124 ± 0.015 | 0.0583 ± 0.0064 | 0.0547 ± 0.004 | 0.0747 ± 0.0045 | 1.1 ± 0.024 | 0.986 ± 0.073
JIMT1 BREAST | 1 ± 0.012 | – | 0.9948 ± 0.0084 | 1 ± 0.015 | 0.809 ± 0.025 | 0.731 ± 0.031 | 0.955 ± 0.036 | 0.9598 ± 0.0091 | 0.512 ± 0.025 | 0.304 ± 0.03 | 0.127 ± 0.011 | 0.117 ± 0.0056 | 0.113 ± 0.0063 | 0.11 ± 0.0053 | 1.02 ± 0.076 | 0.994 ± 0.044
JURKAT HAEMATOPOIETIC AND LYMPHOID TISSUE | 1.05 ± 0.025 | 1.05 ± 0.037 | 1.03 ± 0.041 | 0.989 ± 0.035 | 0.988 ± 0.015 | 1.01 ± 0.038 | 1.07 ± 0.02 | 1.066 ± 0.0099 | 0.952 ± 0.041 | 0.168 ± 0.034 | 0.0297 ± 0.00058 | 0.0247 ± 0.00058 | 0.025 | 0.0233 ± 0.00058 | 1.01 ± 0.015 | –
KPD BONE | 1.07 ± 0.11 | 1.06 ± 0.076 | 1.07 ± 0.075 | 1.18 ± 0.035 | 1.07 ± 0.11 | 1.05 ± 0.096 | 0.953 ± 0.04 | 0.915 ± 0.055 | 0.96 ± 0.087 | 0.839 ± 0.093 | 0.5 ± 0.011 | 0.457 ± 0.035 | 0.445 ± 0.011 | 0.383 ± 0.026 | 1.11 ± 0.035 | 1.03 ± 0.042
LM7 BONE | 1.09 ± 0.1 | 1.2 ± 0.043 | 1.06 ± 0.051 | 1.23 ± 0.061 | 0.932 ± 0.058 | – | 0.973 ± 0.062 | 0.9683 ± 0.0047 | 0.757 ± 0.023 | 0.499 ± 0.062 | 0.115 ± 0.0052 | 0.105 ± 0.0081 | 0.0943 ± 0.011 | 0.122 ± 0.013 | 1.15 ± 0.098 | 0.989 ± 0.043
MCF7 BREAST | 0.942 ± 0.022 | 0.993 ± 0.044 | 0.953 ± 0.053 | 1.084 ± 0.0061 | 1.03 ± 0.042 | – | 0.932 ± 0.027 | 0.914 ± 0.025 | 0.861 ± 0.058 | 0.817 ± 0.022 | 0.466 ± 0.017 | 0.428 ± 0.027 | 0.357 ± 0.0083 | 0.221 ± 0.018 | 1.03 ± 0.018 | 0.9629 ± 0.007
MDAMB134 BREAST | – | 0.899 ± 0.018 | 0.91 ± 0.059 | 1.13 ± 0.033 | – | 1.08 ± 0.088 | 0.97 ± 0.1 | 0.842 ± 0.025 | 0.751 ± 0.072 | 0.691 ± 0.082 | 0.728 ± 0.016 | 0.708 ± 0.05 | 0.69 ± 0.085 | 0.767 ± 0.091 | 1.15 ± 0.17 | 0.92 ± 0.024
MDAMB157 BREAST | 0.981 ± 0.071 | – | 0.998 ± 0.056 | 0.97 ± 0.091 | 0.999 ± 0.073 | – | 0.915 ± 0.076 | 0.872 ± 0.076 | 0.748 ± 0.084 | 0.465 ± 0.045 | 0.11 ± 0.026 | 0.0867 ± 0.013 | 0.0783 ± 0.015 | 0.12 ± 0.025 | 1.04 ± 0.018 | 0.985 ± 0.11
